Test results as given in PubChem BioAssay AID330 (DTP/NCI, 2004).
“And” between values parts separate entries of the source, which are not always exact repeats. Equal entries are not always repeated. Toxic doses and inconclusive results are not listed. How the source made its calls: active means survival T/C of 150% or more; inactive means T/C below 125% in these data.

Test system: P388 leukemia ip, CD2F1 mice, survival T/C
Assay: NCI In Vivo Anticancer Drug Screen. Data for tumor model P388 Leukemia (intraperitoneal) in CD2F1 (CDF1) mice
Settings: endpoint: median survival time, higher = longer survival
In short: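 Mice carrying the transplanted tumor received test compound or vehicle. Survival was recorded in each group, and the value is the treated-group measurement divided by that of the vehicle-treated control group.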

[1] = dose: 6.25 mg/kg/injection, schedule: Q01DX009 (ip), vehicle: saline with Tween-80
[2] = dose: 6.25 mg/kg/injection, schedule: Q01DX009 (ip), vehicle: saline
[3] = dose: 12.5 mg/kg/injection, schedule: Q01DX009 (ip), vehicle: saline with Tween-80
[4] = dose: 12.5 mg/kg/injection, schedule: Q01DX009 (ip), vehicle: saline
[5] = dose: 25.0 mg/kg/injection, schedule: Q01DX009 (ip), vehicle: saline with Tween-80
[6] = dose: 25.0 mg/kg/injection, schedule: Q01DX009 (ip), vehicle: saline
[7] = dose: 50.0 mg/kg/injection, schedule: Q01DX009 (ip), vehicle: saline with Tween-80
[8] = dose: 50.0 mg/kg/injection, schedule: Q01DX009 (ip), vehicle: saline
[9] = dose: 12.5 mg/kg/injection, schedule: Q01DX005 (ip), vehicle: saline
[10] = dose: 25.0 mg/kg/injection, schedule: Q01DX005 (ip), vehicle: saline
[11] = dose: 200.0 mg/kg/injection, schedule: Q01DX001 (ip), vehicle: saline with Tween-80
[12] = dose: 100.0 mg/kg/injection, schedule: Q01DX009 (ip), vehicle: saline with Tween-80
[13] = dose: 200.0 mg/kg/injection, schedule: Q01DX009 (ip), vehicle: saline with Tween-80

Measured: T/C

COC(=O)c1cc2c(s1)CCC/C(Cl)=C(/C=O)C2
inactive: [1] 96 % of control | [2] 97 % of control | [3] 104 % of control and 94 % of control | [4] 91 % of control | [5] 106 % of control and 95 % of control | [6] 97 % of control | [7] 100 % of control and 107 % of control | [8] 101 % of control and 120 % of control | dose: 100.0 mg/kg/injection, schedule: Q01DX009 (ip), vehicle: saline 103 % of control

CN(C)CC(CN(C)C)C(=O)c1ccc(O)cc1
inactive: dose: 6.25 mg/kg/injection, schedule: Q01DX005 (ip), vehicle: saline 118 % of control | [9] 105 % of control | [10] 110 % of control

C=C=C(COC(C)=O)ON1CCOCC1
inactive: dose: 100.0 mg/kg/injection, schedule: Q01DX001 (ip), vehicle: saline 99 % of control | dose: 200.0 mg/kg/injection, schedule: Q01DX001 (ip), vehicle: saline 103 % of control | dose: 400.0 mg/kg/injection, schedule: Q01DX001 (ip), vehicle: saline 100 % of control

CC(/C=N\Nc1ccc(Cl)cc1)=N/NC(=S)NCC(C)C
inactive: dose: 100.0 mg/kg/injection, schedule: Q01DX001 (ip), vehicle: saline with Tween-80 103 % of control | [11] 100 % of control | dose: 400.0 mg/kg/injection, schedule: Q01DX001 (ip), vehicle: saline with Tween-80 94 % of control

CCN(CC)CCCNc1cccc2c(SCc3ccccc3)ccnc12
inactive: dose: 50.0 mg/kg/injection, schedule: Q01DX005 (ip), vehicle: saline with Tween-80 112 % of control | dose: 100.0 mg/kg/injection, schedule: Q01DX005 (ip), vehicle: saline with Tween-80 102 % of control

Fc1cccc(F)n1
inactive: dose: 25.0 mg/kg/injection, schedule: Q04DX003 (ip), vehicle: water 91 % of control | dose: 50.0 mg/kg/injection, schedule: Q04DX003 (ip), vehicle: water 103 % of control | dose: 100.0 mg/kg/injection, schedule: Q04DX003 (ip), vehicle: water 100 % of control | dose: 200.0 mg/kg/injection, schedule: Q04DX003 (ip), vehicle: water 100 % of control | dose: 400.0 mg/kg/injection, schedule: Q04DX003 (ip), vehicle: water 104 % of control

Cc1nc2ncnc(Cl)c2[nH]1
inactive: dose: 50.0 mg/kg/injection, schedule: Q01DX005 (ip), vehicle: saline 99 % of control | dose: 100.0 mg/kg/injection, schedule: Q01DX005 (ip), vehicle: saline 105 % of control | dose: 200.0 mg/kg/injection, schedule: Q01DX005 (ip), vehicle: saline 96 % of control

O=C(CSC1CCc2ccccc21)N/N=C/c1ccccc1O (stereo not given)
inactive: dose: 50.0 mg/kg/injection, schedule: Q01DX005 (ip), vehicle: Klucel (hydroxypropylcellulose) (HPC) 96 % of control | dose: 100.0 mg/kg/injection, schedule: Q01DX005 (ip), vehicle: Klucel (hydroxypropylcellulose) (HPC) 98 % of control | dose: 200.0 mg/kg/injection, schedule: Q01DX005 (ip), vehicle: Klucel (hydroxypropylcellulose) (HPC) 89 % of control

CC1(c2cccc[n+]2Cc2ccc(Cl)c(Cl)c2)OCCO1
inactive: [9] 100 % of control | [10] 99 % of control

CC(=O)OCCN1CCN(CC/C=C2\c3ccccc3Sc3ccc(Cl)cc32)CC1
inactive: [1] 109 % of control | [3] 113 % of control | [5] 113 % of control

CSc1nc(SC)c2c(CNC(C)=O)cn(Cc3ccccc3)c2n1
inactive: dose: 50.0 mg/kg/injection, schedule: Q01DX001 (ip), vehicle: saline with Tween-80 87 % of control | [11] 86 % of control and 87 % of control

CCN(CCCl)c1ccccc1
inactive: dose: 3.12 mg/kg/injection, schedule: Q01DX009 (ip), vehicle: saline 105 % of control | [2] 106 % of control | [4] 116 % of control | [6] 106 % of control and 115 % of control

CC/C(=N\NS(=O)(=O)c1ccc(C)cc1)c1ccc(OC)c(C)c1
inactive: [7] 105 % of control | [8] 104 % of control | [12] 97 % of control | [13] 99 % of control | dose: 200.0 mg/kg/injection, schedule: Q01DX009 (ip), vehicle: saline 96 % of control

COC(=O)c1cccc(OC)c1OC
inactive: [12] 109 % of control | [13] 100 % of control | dose: 400.0 mg/kg/injection, schedule: Q01DX009 (ip), vehicle: saline with Tween-80 109 % of control
